We go through 82 compounds from patent US20190110476A1, “NOVEL ISOTHIAZOLAMIDES, PROCESSES FOR THEIR PREPARATION AND THEIR USE AS FUNGICIDES” (priority 2014, published 2019).

Marks after values point to notes of the source that are not given here.

The nature of the data set: Measurement of LogP values by HPLC on reversed phase columns (EEC directive 79/831 Annex V.A8). Type of data set: physicochemical. The method in brief: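 LogP measured by reversed-phase HPLC following EEC directive 79/831 Annex V.A8. Lambda-max taken from UV spectra at 200–400 nm at chromatographic peak maxima; diastereoisomer values listed separately.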

Consider `COc1ccc(CNc2nsc(C(=O)N(C3CC3)C(C)c3cc(Cl)cc(Cl)c3)c2Cl)cc1` (stereo not shown) [I-928], for which the LogP was 5.36[a].
The same measure for `COc1ccc(CNc2nsc(C(=O)N(Cc3c(Cl)cccc3Cl)C3CC3)c2Cl)cc1` [I-929]: 4.80[a]; for `COc1ccc(CNc2nsc(C(=O)N(Cc3ccc(Cl)cc3Cl)C3CC3)c2Cl)cc1` [I-930]: 5.08[a].
With `COc1ccc(CNc2nsc(C(=O)N(C3CC3)C(C)c3ccc(Cl)cc3Cl)c2Cl)cc1` (stereo not shown) [I-931] the figure was 5.22[a]; with `CCC(c1ccc(Cl)cc1Cl)N(C(=O)c1snc(NCc2ccc(OC)cc2)c1Cl)C1CC1` (stereo not shown) [I-932], 5.62[a]; with `COc1ccc(CNc2nsc(C(=O)N(Cc3c(F)cccc3Cl)C3CC3)c2Cl)cc1` [I-933], 4.44[a].
With `COc1ccc(CNc2nsc(C(=O)N(Cc3ccc(Cl)cc3Cl)C3CCC3)c2Cl)cc1` [I-934] the figure was 5.56[a]; with `COc1ccc(CNc2nsc(C(=O)N(Cc3ccc(Cl)cc3Cl)CC3CC3)c2Cl)cc1` [I-935], 5.45[a].
With `CCC(c1cc(Cl)cc(Cl)c1)N(C(=O)c1snc(NCc2ccc(OC)cc2)c1Cl)C1CC1` (stereo not shown) [I-936], the LogP is 5.81[a].
With `CC(C)N(Cc1ccc(Cl)cc1Cl)C(=O)c1cc(N)ns1` [I-937] the figure was 3.08[a]; with `CCC(C)C(C)N(C(=O)c1cc(N(Cc2ccccc2)Cc2ccccc2)ns1)C1CC1` (stereo not shown) [I-938], 5.97[a].
With `O=C(c1cc(N(Cc2ccccc2)Cc2ccccc2)ns1)N(Cc1c(Cl)cccc1Cl)C1CC1` [I-939] the figure was 5.90[a]; with `O=C(c1cc(N(Cc2ccccc2)Cc2ccccc2)ns1)N(Cc1ccc(Cl)cc1Cl)C1CC1` [I-940], 6.30[a]; with `CC(C)N(Cc1ccc(Cl)cc1Cl)C(=O)c1cc(N(Cc2ccccc2)Cc2ccccc2)ns1` [I-941], 6.48[a].
The same measure for `CC1(C)CC1N(Cc1ccc(Cl)cc1Cl)C(=O)c1cc(N(Cc2ccccc2)Cc2ccccc2)ns1` (stereo not shown) [I-942]: 6.79[a].
Turning to `O=C(c1cc(N(Cc2ccccc2)Cc2ccccc2)ns1)N(Cc1cc(Cl)cc(C(F)(F)F)c1)C1CC1` [I-943], the LogP is 6.16[a].
Take `COc1ccc(CNc2nsc(C(=O)N(Cc3ccc(Cl)cc3Cl)C(C)C)c2Cl)cc1` [I-944]: the LogP is 5.39[a].
With `COc1ccc(CNc2nsc(C(=O)N(Cc3ccc(Cl)cc3Cl)C3CC3(C)C)c2Cl)cc1` (stereo not shown) [I-945] the figure was 5.87[a]; with `COc1ccc(CNc2nsc(C(=O)N(Cc3c(Cl)cccc3C(F)(F)F)C3CC3)c2Cl)cc1` [I-946], 4.91[a].
As for `COc1ccc(CNc2nsc(C(=O)N(Cc3cc(Cl)cc(C(F)(F)F)c3)C3CC3)c2Cl)cc1` [I-947], the LogP is 5.11[a].
The same measure for `COc1ccc(CNc2nsc(C(=O)N(C3CC3)C(C)c3cccc(C(F)(F)F)c3)c2Cl)cc1` (stereo not shown) [I-948]: 4.91[a]; for `COc1ccc(CNc2nsc(C(=O)N(C3CC3)C(C)c3ccccc3C(F)(F)F)c2Cl)cc1` (stereo not shown) [I-949]: 4.83[a]; for `O=C(NCCc1ncc(C(F)(F)F)cc1Cl)c1snc(N(Cc2ccccc2)Cc2ccccc2)c1Br` [I-950]: 5.97[a].
Regarding `Cc1ccc(NC(=O)c2snc(N(Cc3ccccc3)Cc3ccccc3)c2Br)cc1Cl` [I-951], the LogP is 6.35[a].
The same measure for `CC(c1cc(Cl)cc(Cl)c1)N(C(=O)c1snc(N)c1Cl)C1CC1` (stereo not shown) [I-952]: 3.70[a]; for `CC(c1ccc(Cl)cc1Cl)N(C(=O)c1snc(N)c1Cl)C1CC1` (stereo not shown) [I-953]: 3.50[a].
With `CCC(c1ccc(Cl)cc1Cl)N(C(=O)c1snc(N)c1Cl)C1CC1` (stereo not shown) [I-954] the figure was 3.90[a].
With `CCC(c1cc(Cl)cc(Cl)c1)N(C(=O)c1snc(N)c1Cl)C1CC1` (stereo not shown) [I-955] the figure was 4.17[a].
Regarding `CC(c1cccc(C(F)(F)F)c1)N(C(=O)c1snc(N)c1Cl)C1CC1` (stereo not shown) [I-956], the LogP was 3.29[a].
The same measure for `CC(c1ccccc1C(F)(F)F)N(C(=O)c1snc(N)c1Cl)C1CC1` (stereo not shown) [I-957]: 3.13[a].
The same measure for `Nc1nsc(C(=O)N(c2ccc(F)cc2F)C2CC2)c1Cl` [I-958]: 2.39[a]; for `Nc1nsc(C(=O)N(c2cc(F)cc(F)c2)C2CC2)c1Cl` [I-959]: 2.48[a].
With `O=C(Nc1ccc(Cl)cc1Cl)c1snc(N(Cc2ccccc2)Cc2ccccc2)c1Br` [I-960] the figure was 7.15[a]; with `COc1ccc(CNc2nsc(C(=O)NCCc3ccc(F)cc3)c2Cl)cc1` [I-961], 3.72[a].
With `COc1ccc(CNc2nsc(C(=O)NCCc3ccc(Cl)cc3)c2Cl)cc1` [I-962], the LogP was 4.08[a].
The same measure for `COc1ccc(CNc2nsc(C(=O)NCCc3ccccc3F)c2Cl)cc1` [I-963]: 3.74[a]; for `Nc1nsc(C(=O)NCCc2ncc(C(F)(F)F)cc2Cl)c1Br` [I-964]: 2.55[a].
With `Cc1ccc(NC(=O)c2snc(N)c2Br)cc1Cl` [I-965] the figure was 2.88[a]; with `Nc1nsc(C(=O)NCCc2ccc(F)cc2)c1Cl` [I-966], 2.13[a].
The same measure for `Nc1cc(C(=O)N(Cc2ccc(Cl)cc2Cl)C2CC2)sn1` [I-967]: 2.90[a]; for `Nc1cc(C(=O)N(Cc2c(Cl)cccc2Cl)C2CC2)sn1` [I-968]: 2.53[a]; for `CC1(C)CC1N(Cc1ccc(Cl)cc1Cl)C(=O)c1cc(N)ns1` (stereo not shown) [I-969]: 3.48[a].
With `Nc1cc(C(=O)N(Cc2cc(Cl)cc(C(F)(F)F)c2)C2CC2)sn1` [I-970], the LogP is 3.11[a].
Consider `Nc1nsc(C(=O)NCCc2ccc(Cl)cc2)c1Cl` [I-971], for which the LogP is 2.46[a].
`Nc1nsc(C(=O)NCCc2ccccc2F)c1Cl` [I-972]: the LogP was 2.11[a].
The same measure for `CC(C)N(C(=O)c1snc(NC(=O)C(C)(C)C)c1Cl)C(C)C` [I-974]: 2.80[a]; for `CC(=O)N(C(C)=O)c1nsc(C(=O)N(C(C)C)C(C)C)c1Cl` [I-975]: 2.77[a].
With `Cc1cc(C)c(CN(C(=O)c2cc(N)ns2)C2CC2)c(C)c1` [I-977] the figure was 2.86[a]; with `Nc1cc(C(=O)N(Cc2ccccc2)C2CC2)sn1` [I-978], 2.02[a].
With `CC(c1cc(Cl)cc(Cl)c1)N(C(=O)c1cc(N)ns1)C1CC1` (stereo not shown) [I-979] the figure was 3.19[a]; with `Nc1nsc(C(=O)N(C2CCCCC2)C2CC2)c1Cl` [I-980], 2.78[a]; with `COc1ccc(CNc2nsc(C(=O)NC(=O)C3CCCCC3)c2Cl)cc1` [I-982], 3.83[a].
In the case of `O=C(NCCc1ccccc1)c1snc(N(Cc2ccccc2)Cc2ccccc2)c1-c1ccc(F)cc1` [I-983], the LogP is 5.68[a].
The same measure for `CCC(C)CNC(=O)c1cc(N)ns1` (stereo not shown) [I-984]: 1.44[a].
The same measure for `CC(C)CNC(=O)c1cc(N)ns1` [I-985]: 1.07[a]; for `COc1ccc(CNc2nsc(C(=O)N(Cc3cc(C)ccc3F)C3CC3)c2Cl)cc1` [I-986]: 4.46[a]; for `COc1ccc(CNc2nsc(C(=O)N(Cc3cc(F)ccc3F)C3CC3)c2Cl)cc1` [I-987]: 4.15[a].
With `COc1ccc(CNc2nsc(C(=O)N(Cc3cc(Cl)ccc3F)C3CC3)c2Cl)cc1` [I-988] the figure was 4.49[a].
As to `COc1ccc(CNc2nsc(C(=O)N(Cc3cc(Cl)ccc3Br)C3CC3)c2Cl)cc1` [I-989], the LogP was 4.98[a].
`Cc1ccc(F)c(CN(C(=O)c2cc(N(Cc3ccccc3)Cc3ccccc3)ns2)C2CC2)c1` [I-990]: the LogP was 5.56[a].
`O=C(c1cc(N(Cc2ccccc2)Cc2ccccc2)ns1)N(Cc1cc(F)ccc1F)C1CC1` [I-991]: the LogP is 5.25[a].
For the compound `O=C(c1cc(N(Cc2ccccc2)Cc2ccccc2)ns1)N(Cc1cc(Cl)ccc1F)C1CC1` [I-992], the LogP was 5.59[a].
The same measure for `O=C(c1cc(N(Cc2ccccc2)Cc2ccccc2)ns1)N(Cc1cc(Cl)ccc1Br)C1CC1` [I-993]: 6.11[a].
With `Nc1nsc(C(=O)NCCc2ccccc2)c1-c1ccc(F)cc1` [I-994] the figure was 2.59[a].
With `Cc1ccc(F)c(CN(C(=O)c2cc(N)ns2)C2CC2)c1` [I-995] the figure was 2.44[a].
With `Cc1ccc(F)c(CN(C(=O)c2cc(NCc3ccccc3)ns2)C2CC2)c1` [I-996], the LogP was 4.01[a].
The same measure for `Nc1cc(C(=O)N(Cc2cc(F)ccc2F)C2CC2)sn1` [I-997]: 2.18[a]; for `O=C(c1cc(NCc2ccccc2)ns1)N(Cc1cc(F)ccc1F)C1CC1` [I-998]: 3.74[a]; for `Nc1cc(C(=O)N(Cc2cc(Cl)ccc2F)C2CC2)sn1` [I-999]: 2.49[a].
As to `O=C(c1cc(NCc2ccccc2)ns1)N(Cc1cc(Cl)ccc1F)C1CC1` [I-1000], the LogP was 4.06[a].
`Nc1cc(C(=O)N(Cc2cc(Cl)ccc2Br)C2CC2)sn1` [I-1001]: the LogP is 2.84[a].
With `O=C(c1cc(NCc2ccccc2)ns1)N(Cc1cc(Cl)ccc1Br)C1CC1` [I-1002] the figure was 4.51[a]; with `COc1ccc(CNc2nsc(C(=O)N(Cc3ccc(F)cc3F)C3CC3)c2Cl)c(OC)c1` [I-1012], 4.46[a]; with `CCC(C)CNC(=O)c1snc(N)c1Cl` (stereo not shown) [I-1014], 1.98[a].
Consider `Nc1nsc(C(=S)NCc2c(F)cc(F)cc2F)c1Cl` [I-1015], for which the LogP is 2.86[a].
The same measure for `Nc1nsc(C(=S)NCc2ccc(F)cc2F)c1Cl` [I-1016]: 2.74[a]; for `CC(C)CNC(=O)c1snc(N)c1Cl` [I-1018]: 1.55[a].
With `Nc1nsc(C(=S)NCc2ccccc2F)c1Cl` [I-1021] the figure was 2.73[a].
The same measure for `CCC(C)CNC(=S)c1snc(N)c1Cl` (stereo not shown) [I-1022]: 2.87[a]; for `Nc1nsc(C(=S)NCc2ccc(Cl)cc2)c1Cl` [I-1026]: 3.12[a]; for `COc1ccc(CNc2nsc(C(=O)NOc3ccccc3)c2Cl)cc1` [I-1031]: 3.17[a].
For `Nc1nsc(C(=O)NOc2ccccc2)c1Cl` [I-1033], the LogP is 1.53[a].
